Data: US10851115B2, “Heterocyclic compounds as RSV inhibitors” (Enanta Pharmaceuticals, Inc., priority 2017, dated 2020)

system: Human RSV-A (“Long” strain); assay: RSV in vitro cytoprotection assay in HEp-2 cells (ATPlite readout); type: cell-based; conditions: human respiratory syncytial virus, 96 h; HEp-2 cells, 4-day incubation, ATPlite; read-out: Human RSV-A (“Long” strain) EC50
Source text: RSV is a single stranded negative sense RNA virus that causes respiratory tract infections which can be dangerous to infants, the elderly, and immunosuppressed individuals. Currently there is no vaccine, and therapeutic options are both costly and of limited effectiveness. These approved treatments are Ribavirin, and Palivizumab/Synagis (a monoclonal antibody). RSV has two genotypes, A and B, which differ primarily in the structure of the virus' surface “G” attachment protein. Our current primary screen focusses on RSV-A and uses an in vitro cytoprotection assay where compounds are added in 2-fold dilutions to cells which are then subjected to fully replicative viral particles. Cell viability is measured several days later along with separate measurements of compound cytotoxicity. This report focuses on the results of our most recent screening of compounds.
HEp-2 cells, (originally derived from tumors grown in irradiated-cortisonised weanling rats that had been injected with epidermoid carcinoma tissue from a person's larynx, but later found to be indistinguishable from HeLa cells by PCR DNA analysis), were used for the culturing of genotype A, “Long” strain RSV. Flasks were inoculated with RSV and viral stocks were collected once cytopathic effect (CPE) was greater than 90%. Viral stocks in 25% sucrose media were snap frozen using liquid nitrogen to increase viral stability. Viral stock titers were quantified by tissue culture infectious dose 50% (TCID50) using 8,000 cells per well and 3-fold viral dilutions across a 96-well plate, cultured for 4 days.
Following extensive parameter testing, the final assay is run as follows: HEp-2 cells are seeded into the inner 60 wells of a 96-well plate at 8,000 cells per well in a volume of 50 μL using Growth Media (DMEM without phenol red, 1% L-Glut, 1% Penn/Strep, 1% nonessential amino acids, 10% FBS). 2-Fold serial dilutions of control and test compounds are added to the wells in duplicate in a total volume of 25 μL. Viral stock is then added to the wells in a volume of 25 μL, bringing the total volume of each well to 100 μL. Each 96-well plate has a control column of 6 wells with cells and virus but no compound (negative control, max CPE), a column with cells but no compound or virus (positive control, minimum CPE), and a column with no cells or virus or compound (background plate/reagent control). The control wells with cells but no virus are given an additional 25 uL of growth media containing an equal quantity of sucrose as those wells receiving the viral stock in order to keep consistent in media and volume conditions. The outer wells of the plate are filled with 125 μL of growth media to act as a thermal and evaporative moat around the test wells. Following a 4-day incubation period, the plates are read using ATPlite (50 uL added per well), which quantifies the amount of ATP (a measure of cell health) present in each well. Assay plates are read using the Envision luminometer. In parallel, cytotoxicity is examined on an additional 96-well plate treated in an identical manner, but substituting the 25 μL of viral stock for 25 μL of growth media. […] EC50 ranges are as follows: A<0.01 μM; B 0.01-0.05 μM; C>0.05 μM.

SMILES	EC50
Cc1cccc(F)c1NC(=O)c1cc2c(s1)-c1cccnc1N(C(=O)c1ccc(NC(=O)c3cccnc3N3CC4(CCOCC4)C3)cc1)CC2 [Example 50]	> 50 nM
O=C(Nc1c(F)cccc1F)c1cc2c(s1)-c1cnccc1N(C(=O)c1ccc(NC(=O)c3cccnc3N3CC4(CCOCC4)C3)cc1)CC2 [Example 51]	10 to 50 nM
O=C(Nc1c(F)cc(F)cc1Cl)c1cc2c(s1)-c1cnccc1N(C(=O)c1ccc(NC(=O)c3cccnc3N3CC4(CCOCC4)C3)cc1)CC2 [Example 52]	10 to 50 nM
O=C(Nc1ccc(C(=O)N2CCc3cc(-c4nc5ccccc5[nH]4)sc3-c3cnccc32)cc1)c1cccnc1N1CC2(CCOCC2)C1 [Example 53]	> 50 nM
O=C(Nc1ccc(C(=O)N2CCc3cc(-c4nc5ccccc5[nH]4)sc3-c3ncc(F)cc32)cc1)c1cccnc1N1CC2(CCOCC2)C1 [Example 54]	10 to 50 nM
O=C(Nc1c(F)cccc1F)c1cc2c(s1)-c1ncc(F)cc1N(C(=O)c1ccc(NC(=O)c3cccnc3N3CC4(CCOCC4)C3)cc1)CC2 [Example 55]	< 10 nM
O=C(Nc1c(F)cc(F)cc1F)c1cc2c(s1)-c1ncc(F)cc1N(C(=O)c1ccc(NC(=O)c3cccnc3N3CC4(CCOCC4)C3)cc1)CC2 [Example 56]	< 10 nM
O=C(Nc1ccc(C(=O)N2CCc3cc(-c4nc5cccc(Cl)c5[nH]4)sc3-c3ncc(F)cc32)cc1)c1cccnc1N1CC2(CCOCC2)C1 [Example 57]	10 to 50 nM
Cc1cnc(N2CC3(CCOCC3)C2)c(C(=O)Nc2ccc(C(=O)N3CCc4cc(-c5nc6ccccc6[nH]5)sc4-c4ncc(F)cc43)cc2)c1 [Example 58]	< 10 nM
O=C(Nc1c(F)cc(F)cc1Cl)c1cc2c(s1)-c1ncc(F)cc1N(C(=O)c1ccc(NC(=O)c3cccnc3N3CC4(CCOCC4)C3)cc1)CC2 [Example 59]	< 10 nM
O=C(Nc1ccc(C(=O)N2CCc3cc(-c4nc5cccc(C(F)(F)F)c5[nH]4)sc3-c3ncc(F)cc32)cc1)c1cccnc1N1CC2(CCOCC2)C1 [Example 60]	10 to 50 nM
Cc1cccc(F)c1NC(=O)c1cc2c(s1)-c1ncc(F)cc1N(C(=O)c1ccc(NC(=O)c3cccnc3N3CC4(CCOCC4)C3)cc1)CC2 [Example 61]	< 10 nM
O=C(Nc1c(F)cccc1C(F)(F)F)c1cc2c(s1)-c1ncc(F)cc1N(C(=O)c1ccc(NC(=O)c3cccnc3N3CC4(CCOCC4)C3)cc1)CC2 [Example 62]	< 10 nM
Cc1cnc(N2CC3(CCOCC3)C2)c(C(=O)Nc2ccc(C(=O)N3CCc4cc(-c5nc6cccc(Cl)c6[nH]5)sc4-c4ncc(F)cc43)cc2)c1 [Example 63]	< 10 nM
Cc1cnc(N2CC3(CCOCC3)C2)c(C(=O)Nc2ccc(C(=O)N3CCc4cc(-c5nc6cccc(F)c6[nH]5)sc4-c4ncc(F)cc43)cc2)c1 [Example 64]	< 10 nM
Cc1cnc(N2CC3(CCOCC3)C2)c(C(=O)Nc2ccc(C(=O)N3CCc4cc(C(=O)Nc5c(F)cc(F)cc5Cl)sc4-c4ncc(F)cc43)cc2)c1 [Example 65]	< 10 nM
Cc1cnc(N2CC3(CCOCC3)C2)c(C(=O)Nc2ccc(C(=O)N3CCc4cc(C(=O)Nc5c(Cl)cccc5Cl)sc4-c4ncc(F)cc43)cc2)c1 [Example 66]	< 10 nM
Cc1cnc(N2CC3(CCOCC3)C2)c(C(=O)Nc2ccc(C(=O)N3CCc4cc(C(=O)Nc5c(F)cccc5C(F)(F)F)sc4-c4ncc(F)cc43)cc2)c1 [Example 67]	> 50 nM
Cc1cnc(N2CC3COCC3C2)c(C(=O)Nc2ccc(C(=O)N3CCc4cc(-c5nc6ccccc6[nH]5)sc4-c4ncc(F)cc43)cc2)c1 (stereo not drawn) [Example 68]	10 to 50 nM
Cc1cnc(N2CC3COCC3C2)c(C(=O)Nc2ccc(C(=O)N3CCc4cc(C(=O)Nc5c(F)cccc5F)sc4-c4ncc(F)cc43)cc2)c1 (stereo not drawn) [Example 69]	10 to 50 nM
Cc1cnc(N2CC3(CCOCC3)C2)c(C(=O)Nc2ccc(C(=O)N3CCc4c(sc(C(=O)Nc5c(F)cccc5F)c4F)-c4ncccc43)cc2)c1 [Example 70, N-(2,6-difluorophenyl)-8-fluoro-5-(4-(5-methyl-2-(7-oxa-2-azaspiro[3.5]nonan-2-yl)nicotinamido)benzoyl)-6,7-dihydro-5H-pyrido[3,2-b]thieno[2,3-d]azepine-9-carboxamide]	< 10 nM
